# How the values were obtained:
# [1] = target: T1, acetylcholinesterase (AChE); assay: Ellman assay, […] nm; assay type: biochemical, Lymnaea acuminata; details: acetylthiocholine iodide, pH 8.0, 25°C, 15 min preincubation; tissue homogenate supernatant; competitive noncompetitive
# T1 construct: native, crude nervous tissue homogenate supernatant (1000 g), not purified
# [2] = target: T2, alkaline phosphatase (ALP); assay: 4-nitrophenol release, […] nm; assay type: biochemical, Lymnaea acuminata; details: 4-nitrophenyl phosphate, glycine-NaOH buffer, MgCl2, 37°C, 15 min preincubation at 25°C, tissue homogenate supernatant
# T2 construct: native, crude nervous tissue homogenate supernatant (5000 g), not purified; isoenzyme not identified
# acid phosphatase (ACP) [3] = target: T3, acid phosphatase (ACP); assay: 4-nitrophenol release, […] nm; assay type: biochemical, Lymnaea acuminata; details: 4-nitrophenyl phosphate, citrate acid buffer, 37°C, 15 min preincubation at 25°C, tissue homogenate supernatant
# T3 construct: native, crude nervous tissue homogenate supernatant (5000 g), not purified; isoenzyme not identified
# [4] = system: T1, acetylcholinesterase (AChE); assay: Ellman assay, […] nm, Lineweaver-Burk; assay type: biochemical, Lymnaea acuminata; details: pH 8.0, 25°C; no inhibitor; tissue homogenate supernatant
# acid phosphatase (ACP) [5] = details: citrate acid buffer, 37°C; no inhibitor; tissue homogenate supernatant
# [6] = system: alkaline phosphatase (ALP); details: glycine-NaOH buffer, MgCl2, 37°C; no inhibitor; tissue homogenate supernatant
structure (smiles),measurement,setting,value
"C=CCc1cc(OC)c2c(c1)OCO2 [myristicin, 4-methoxy-6-(2-propenyl)-1,3-benzodioxole]",IC50,[1],30 µM
same,IC50,[2]; uncompetitive,60 µM
same,IC50,acid phosphatase (ACP) [3]; competitive,70 µM
CC(=O)SCC[N+](C)(C)C [acetylthiocholine iodide],Km,[4],317 µM
"CCCCCCCCCCCCCC(=O)OCC(COC(=O)CCCCCCCCCCCCC)OC(=O)CCCCCCCCCCCCC [trimyristin, 1,2,3-tritetradecanoylglycerol]",IC50,[1],110 µM
same,IC50,[2]; competitive noncompetitive,180 µM
same,IC50,acid phosphatase (ACP) [3]; uncompetitive,160 µM
O=[N+]([O-])c1ccc(OP(=O)(O)O)cc1 [4-nitrophenyl phosphate],Km,acid phosphatase (ACP) [5],13.7 µM
same,Km,[6],20 µM

# Source: publication PMC2963183, “Enzyme Inhibition by Molluscicidal Components of Myristica fragrans Houtt. in the Nervous Tissue of Snail Lymnaea acuminata” (Enzyme Research, 2009)
